Results published in article PMC4403932 (Journal of Medicinal Chemistry, 2015).
Read-outs that look alike come from different tables or passages of the source.

Tests used:
[1] = Solubility (observation in words); assay type: physicochemical
BRD9 [2] = target: T1, BRD9 (Homo sapiens, UniProt Q9H8M2); experiment: Protein stability (thermal) shift assay, BRD9; assay type: binding; details: compound 10 μM, protein 2 μM; average of triplicate; read-out: ΔTm Shift, BRD9
T1 construct: made in house
T1 sequence (Q9H8M2 136-240 limits assumed): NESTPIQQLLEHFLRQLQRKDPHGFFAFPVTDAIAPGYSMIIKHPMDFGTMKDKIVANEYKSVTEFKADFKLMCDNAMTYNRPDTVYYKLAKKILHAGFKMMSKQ

BRD3(1) = target: T2, BRD3(1) (Homo sapiens, UniProt Q15059); experiment: Protein stability (thermal) shift assay, BRD3(1); assay type: binding; details: compound 10 μM, protein 2 μM; average of triplicate
T2 construct: Fragments were tested in a thermal shift assay against bromodomains of the BET subfamily; made in house

BRD4(2) = target: T3, BRD4(2) (Homo sapiens, UniProt O60885); experiment: Protein stability (thermal) shift assay, BRD4(2); assay type: binding; details: compound 10 μM, protein 2 μM; average of triplicate
T3 construct: made in house

BRD2(2) = target: T4, BRD2(2) (Homo sapiens, UniProt P25440); experiment: Protein stability (thermal) shift assay, BRD2(2); assay type: binding; details: compound 10 μM, protein 2 μM; average of triplicate
T4 construct: made in house

BRD9 [3] = target: T1, BRD9; experiment: Isothermal titration calorimetry, BRD9; assay type: binding
Protocol: Experiments were carried out on an ITC200 titration microcalorimeter from MicroCal, LLC (GE Healthcare) equipped with a Washing module, with a cell volume of 0.2003 mL, and a 40 μL microsyringe. Experiments were carried out at 15 °C while stirring at 1000 rpm, in ITC buffer (50 mM HEPES, pH 7.5 (at 25 °C), 150 mM NaCl). The microsyringe was loaded with a solution of the protein sample (300−740 μM protein for BRD9 and BRD4(1), respectively, in ITC buffer) and was carefully inserted into the calorimetric cell which was filled with an amount of the ligand (0.2 mL, 20–25 μM in ITC buffer). The system was first allowed to equilibrate until the cell temperature reached 15 °C, and an additional delay of 60 s was applied. All titrations were conducted using an initial control injection of 0.3 μL followed by 38 identical injections of 1 μL with a duration of 2 s (per injection) and a spacing of 120 s between injections. The titration experiments were designed in such a fashion as to ensure complete saturation of the proteins before the final injection. The heat of dilution for the proteins was independent of their concentration and corresponded to the heat observed from the last injection, following saturation of ligand binding, thus facilitating the estimation of the baseline of each titration from the last injection. The collected data were corrected for protein heats of dilution (measured on separate experiments by titrating the proteins into ITC buffer) and deconvoluted using the MicroCal Origin software supplied with the instrument to yield enthalpies of binding (ΔH) and binding constants (KB) in the same fashion as that previously described in detail by Wiseman and co-workers.[66] Thermodynamic parameters were calculated using the basic equation of thermodynamics (ΔG = ΔH – TΔS = −RT ln KB, where ΔG, ΔH, and ΔS are the changes in free energy, enthalpy, and entropy of binding, respectively). In all cases a single binding site model was employed, supplied with the MicroCal Origin software package.

[4] = tested on: human bromodomains (panel); experiment: Protein stability (thermal) shift assay, whole panel of human bromodomains; assay type: binding; details: 10 μM compound
Protocol: Thermal melting experiments were carried out using an Mx3005p real time PCR machine (Stratagene). Proteins were buffered in 10 mM HEPES, pH 7.5, 500 mM NaCl and assayed in a 96-well plate at a final concentration of 2 μM in 20 μL volume. Compounds were added at a final concentration of 10 or 100 μM. SYPRO Orange (Molecular Probes) was added as a fluorescence probe at a dilution of 1 in 1000. Excitation and emission filters for the SYPRO-Orange dye were set to 465 and 590 nm, respectively. The temperature was raised with a step of 3 °C per minute from 25 to 96 °C, and fluorescence readings were taken at each interval. The temperature dependence of the fluorescence during the protein denaturation process was approximated by the equation [drawing 1] where ΔuG is the difference in unfolding free energy between the folded and unfolded state, R is the gas constant, and yF and yU are the fluorescence intensity of the probe in the presence of completely folded and unfolded protein, respectively.[65] The baselines of the denatured and native states were approximated by a linear fit. The observed temperature shifts, ΔTm^obs, were recorded as the difference between the transition midpoints of sample and reference wells containing protein without ligand in the same plate and determined by nonlinear least-squares fit. Temperature shifts (ΔTm^obs) for three independent measurements per proteins/compound are summarized in Supporting Information Table S1.

BRDT(2) = target: T5, BRDT(2) (Homo sapiens, UniProt Q58F21); experiment: Protein stability (thermal) shift assay, BRDT(2); assay type: binding; details: compound 10 μM, protein 2 μM; average of triplicate; read-out: ΔTm Shift, BRDT(2)
T5 construct: made in house

BRD4(1) = target: T6, BRD4(1) (Homo sapiens, UniProt O60885); experiment: Protein stability (thermal) shift assay, BRD4(1); assay type: binding; details: compound 10 μM, protein 2 μM; average of triplicate; read-out: ΔTm Shift, BRD4(1)
T6 construct: made in house

BAZ2B = target: T7, BAZ2B (Homo sapiens, UniProt Q9UIF8); experiment: Protein stability (thermal) shift assay, BAZ2B; assay type: binding; details: compound 10 μM, protein 2 μM; average of triplicate; read-out: ΔTm Shift, BAZ2BA
T7 construct: representative BRDs from other structural subfamilies (family I, PCAF); family III, CREBBP; family IV, BRD9; family V, BAZ2B; made in house
T7 sequence (Q9UIF8 2060-2164 limits assumed): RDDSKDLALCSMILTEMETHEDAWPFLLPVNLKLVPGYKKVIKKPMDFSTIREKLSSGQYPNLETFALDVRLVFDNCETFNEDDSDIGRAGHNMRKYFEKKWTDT

PB1(5) = target: T8, PB1(5) (Homo sapiens, UniProt Q86U86); experiment: Protein stability (thermal) shift assay, PB1(5); assay type: binding; details: compound 10 μM, protein 2 μM; average of triplicate
T8 construct: made in house

PCAF = target: T9, PCAF (Homo sapiens, UniProt Q92831); experiment: Protein stability (thermal) shift assay, PCAF; assay type: binding; details: compound 10 μM, protein 2 μM; average of triplicate
T9 construct: representative BRDs from other structural subfamilies (family I, PCAF); made in house
T9 sequence (Q92831 723-827 limits assumed): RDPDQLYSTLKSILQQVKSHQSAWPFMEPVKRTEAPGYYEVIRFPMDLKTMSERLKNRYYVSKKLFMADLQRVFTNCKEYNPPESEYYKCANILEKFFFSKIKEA

BRDT(1) = target: T10, BRDT(1) (Homo sapiens, UniProt Q58F21); experiment: Protein stability (thermal) shift assay, BRDT(1); assay type: binding; details: compound 10 μM, protein 2 μM; average of triplicate
T10 construct: made in house

CREBBP = target: T11, CREBBP (Homo sapiens, UniProt Q92793); experiment: Protein stability (thermal) shift assay, CREBBP; assay type: binding; details: compound 10 μM, protein 2 μM; average of triplicate; read-out: ΔTm Shift, CREBBP
T11 construct: small thermal shits (1.0–1.3 °C) for the bromodomain of CREBBP; made in house

BRD2(1) = target: T12, BRD2(1) (Homo sapiens, UniProt P25440); experiment: Protein stability (thermal) shift assay, BRD2(1); assay type: binding; details: compound 10 μM, protein 2 μM; average of triplicate
T12 construct: Fragments were tested in a thermal shift assay against bromodomains of the BET subfamily; made in house

BRD3(2) = target: T13, BRD3(2) (Homo sapiens, UniProt Q15059); experiment: Protein stability (thermal) shift assay, BRD3(2); assay type: binding; details: compound 10 μM, protein 2 μM; average of triplicate
T13 construct: made in house
T13 sequence (Q15059 306-415 limits assumed): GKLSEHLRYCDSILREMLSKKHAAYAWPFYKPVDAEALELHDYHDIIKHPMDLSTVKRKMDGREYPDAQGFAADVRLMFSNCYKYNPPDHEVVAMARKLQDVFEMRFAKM

T12 sequence (P25440 74-180 limits assumed): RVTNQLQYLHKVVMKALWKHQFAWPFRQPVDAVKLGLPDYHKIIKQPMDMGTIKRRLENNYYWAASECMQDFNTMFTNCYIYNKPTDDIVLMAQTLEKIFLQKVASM
T2 sequence (Q15059 34-140 limits assumed): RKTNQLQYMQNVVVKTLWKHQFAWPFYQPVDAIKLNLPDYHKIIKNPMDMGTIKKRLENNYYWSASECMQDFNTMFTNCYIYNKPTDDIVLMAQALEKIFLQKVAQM
T8 sequence (Q86U86 653-763 limits assumed): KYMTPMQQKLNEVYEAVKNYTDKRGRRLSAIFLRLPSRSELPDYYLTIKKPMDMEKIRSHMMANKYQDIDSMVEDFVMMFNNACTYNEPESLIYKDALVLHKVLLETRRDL
T11 sequence (Q92793 1085-1192 limits assumed): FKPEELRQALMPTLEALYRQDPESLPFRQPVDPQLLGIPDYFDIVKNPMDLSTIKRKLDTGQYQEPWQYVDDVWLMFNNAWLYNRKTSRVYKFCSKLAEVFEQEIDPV
T4 sequence (P25440 344-453 limits assumed): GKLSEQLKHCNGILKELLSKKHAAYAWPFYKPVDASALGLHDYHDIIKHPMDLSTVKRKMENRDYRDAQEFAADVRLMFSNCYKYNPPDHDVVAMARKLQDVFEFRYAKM

solubility (in words) [1] | ΔTm at 10 µM (BRD9 [2]) | Structure (SMILES) | ΔTm at 10 µM (BRD3(1)) | ΔTm at 10 µM (BRD4(2)) | ΔTm at 10 µM (BRD2(2)) | binding to the bromodomain panel in the ΔTm assay (in words) [4] | ΔTm at 10 µM (BRDT(2)) | ΔTm at 10 µM (BRD4(1)) | ΔTm at 10 µM (BAZ2B) | ΔTm at 10 µM (PB1(5)) | ΔTm at 10 µM (PCAF) | ΔTm at 10 µM (BRDT(1)) | ΔTm at 10 µM (CREBBP) | ΔTm at 10 µM (BRD2(1)) | ΔTm at 10 µM (BRD3(2)) | also measured
low solubility | 0.158 °C | Nc1nc(-c2cccc3c2Sc2ccccc2S3)c2nc[nH]c2n1 [Compound 10, 2-Amino-6-thianthrenyl-9H-purine] | – | – | – | – | – | – | – | – | – | – | – | – | – | –
– | 0.9 °C | COc1ccc(Br)cc1-c1nc(Cl)nc2[nH]cnc12 [Compound 8a, 6-(5-Bromo-2-methoxyphenyl)-2-chloro-9H-purine] | 1 °C | 0.3 °C | -0.564 °C | loss of affinity toward all BRDs | -0.164 °C | 1.3 °C | -0.7 °C | 1.3 °C | -0.4 °C | -0.541 °C | 2.5 °C | 0.8 °C | -0.00857 °C | Kd (BRD9 [3]; ITC, 50 mM HEPES pH 7.5, 150 mM NaCl, 15 °C, reverse titration, triplicate, read-out: KD): 7.87 ± 0.258 µM; TΔS (BRD9 [3]; ITC, 15 °C): –1.57 kcal/mol; ΔG (BRD9 [3]; ITC, 15 °C): –6.73 kcal/mol; N (stoichiometry) (BRD9 [3]; ITC, 15 °C, reverse titration): 1.06 ± 0.014; ΔHobs (BRD9 [3]; ITC, 15 °C, reverse titration): –8.30 ± 0.15 kcal/mol; Kd (BRD9 [3]; ITC, read-out: dissociation constant): 7.9 µM; LE (ligand efficiency) (BRD9 [3]; LE = ΔG/N, N number of non-hydrogen atoms): 0.35
low solubility | – | COc1ccc(Br)cc1-c1ncnc2[nH]c(C)nc12 [Compound 9a, 6-(5-Bromo-2-methoxyphenyl)-8-methyl-9H-purine] | – | – | – | – | – | – | – | – | – | – | – | – | – | –

Structure (SMILES) | solubility (in words) [1] | ΔTm at 10 µM (BRD9 [2]) | ΔTm at 10 µM (BRD3(1)) | ΔTm at 10 µM (BRD4(2)) | ΔTm at 10 µM (BRD2(2)) | binding to the bromodomain panel in the ΔTm assay (in words) [4] | ΔTm at 10 µM (BRDT(2)) | ΔTm at 10 µM (BRD4(1)) | ΔTm at 10 µM (BAZ2B) | ΔTm at 10 µM (PB1(5)) | ΔTm at 10 µM (PCAF) | ΔTm at 10 µM (BRDT(1)) | ΔTm at 10 µM (CREBBP) | ΔTm at 10 µM (BRD2(1)) | ΔTm at 10 µM (BRD3(2)) | also measured
CCCCOc1cc(Br)cc(-c2nc(N)nc3c2ncn3C)c1 [Compound 5b, 2-Amino-6-(3-bromo-5-butoxyphenyl)-9-methylpurine] | – | -0.56 °C | 0.227 °C | 0.373 °C | 0.163 °C | very weak or no binding | 1 °C | 0.633 °C | 0.217 °C | 0.5 °C | 0.9 °C | 0.45 °C | 1.3 °C | -0.153 °C | 0.5 °C | KD (BRD9 [3]; ITC, 50 mM HEPES pH 7.5, 150 mM NaCl, 15 °C, reverse titration, triplicate): no binding/weak
